Here are results for 4 molecules from patent US20100041662A1, “Heterocyclic compounds as antiinflammatory agents” (priority 2006, published 2010).

The term IC50 denotes the concentration that inhibits the measured activity by half.

The subject of data set [1] is Phospho-PKB in U87MG cells. Kind of data set: Detection of phospho-PKB in U87MG cells by ELISA. It is filed as cell-based. As to conditions: Homo sapiens, U-87 MG; assay not given; follows the PI3K/DNA-PK/phospho-PKB U87MG methods. Here is the method:
U87MG cells (human glioblastoma, ATCC No. HTB-14) are trypsinized, counted in a CASY cell counter (Schärffe systems, Göttingen, Germany), diluted in fresh complete DMEM high glucose medium to load, per well, 150 μL cell suspension containing 4×10^4 cells, and test plates incubated for 18 hours. In parallel, 50 μL of coating antibody, at the desired concentration in PBS/O is loaded in each well of the ELISA plates, and plates are kept for 2 hours at room temperature. This ELISA assays is performed in black flat-bottom 96-well plates (Microtest™, Falcon Becton-Dickinson, Ref.: 353941) sealed with Plate Sealers (Costar-Corning, Ref: 3095). Medium in plates is discarded and replaced by complete DMEM high glucose medium containing either 0.1% DMSO or 0.1% inhibitor at titers (7) between […] in DMSO. After 30 minutes of contact, the medium is quickly removed by aspiration, plates are then placed on ice and immediately cells lyzed with 70 μL of Lysis buffer. In parallel, the 96 wells plates prepared with the coating antibody (1/250 diluted (in PBS/O) Anti-Akt1 C-20, goat, Santa-Cruz-1618, Santa Cruz Biotechnology, Inc., Santa Cruz, Calif., USA) are washed 3 times for 1 minute with PBS/O containing 0.05% Tween 20 and 0.1% Top-Blocks (derivative of gelatine that blocks unspecific binding sites on surfaces; Sigma-Aldrich, Fluka, Buchs, Switzerland, Ref.: 37766), and remaining protein binding sites blocked to prevent non-specific interactions with 200 μL of PBS containing 3% Top Block®, for 2 hours at room temperature. Well content is replaced with 50 μL of samples from treated cells, and plates are incubated for 3 hours at 4° C. The ELISA assays are always done in parallel with the following controls, in 6 replicates: U87MG (untreated control) or Lysis buffer alone (LB). […] The luminescence is read immediately on a Top-Count NXT (Packard Bioscience) luminometer.
(In general: In an ELISA, binding on a coated surface is turned into a signal by an enzyme label.)

The test system of data set [2] is dimethylnitrosamine induced liver fibrosis. As to conditions: cited from earlier work.
The mark [3] stands for this setting: given therapeutically to rat, 3 weeks treatment.

In data set [1], `OC1CCC(Nc2ccc3ncc(-c4ccc(-n5cncn5)cc4)n3n2)CC1` (stereo not drawn) [Example 1.8, 4-[3-(4-[1,2,4]Triazol-1-yl-phenyl)-imidazo[1,2-b]pyridazin-6-ylamino]-cyclohexanol] had an IC50 of 666 nM.
On the same count and under the same terms, then `OC1CCC(Nc2ccc3ncc(-c4ccc(-n5cccn5)cc4)n3n2)CC1` (stereo not drawn) [Example 1.5, 4-[3-(4-Pyrazol-1-yl-phenyl)-imidazo[1,2-b]pyridazin-6-ylamino]-cyclohexanol], with 106 nM.
`OCC1CCC(Nc2ccc3ncc(-c4ccc(-n5cccn5)cc4)n3n2)CC1` (stereo not drawn) [Example 1.9, {4-[3-(4-Pyrazol-1-yl-phenyl)-imidazo[1,2-b]pyridazin-6-ylamino]-cyclohexyl}-methanol] gave an IC50 in data set [1] of 753 nM.
With `c1ccc(-c2cc(-c3cn[nH]c3-c3ccccn3)ccn2)cc1` [GW6604], the side effects result in data set [2] (during the 3 weeks treatment) is “no obvious side effects”. Besides, in data set [2] (setting [3]), the “inhibited extracellular matrix deposition” value is reported as 60% and the prevented death rate was 40%.
